Measured values published in ChEMBL document CHEMBL4507268 (2021).

Legend:
[1] = molecular target: 5-hydroxytryptamine receptor 2C (Homo sapiens) (UniProt P28335); conditions: Compound concentration 10.0 uM
[2] = molecular target: Tyrosine-protein kinase ABL2 (Homo sapiens) (UniProt P42684); conditions: Compound concentration 1.0 uM
[3] = molecular target: Transient receptor potential cation channel subfamily M member 7 (Homo sapiens) (UniProt Q96QT4); conditions: Compound concentration 1.0 uM
[4] = molecular target: Casein kinase I isoform gamma-1 (Homo sapiens) (UniProt Q9HCP0); conditions: Compound concentration 1.0 uM
[5] = molecular target: Casein kinase II subunit alpha' (Homo sapiens) (UniProt P19784); conditions: Compound concentration 1.0 uM
[6] = molecular target: Eukaryotic translation initiation factor 2-alpha kinase 1 (Homo sapiens) (UniProt Q9BQI3); conditions: Compound concentration 1.0 uM
[7] = molecular target: Insulin-like growth factor 1 receptor (Homo sapiens) (UniProt P08069); conditions: Compound concentration 1.0 uM
[8] = molecular target: Tyrosine-protein kinase JAK1 (Homo sapiens) (UniProt P23458); conditions: Compound concentration 1.0 uM
[9] = molecular target: Dual specificity mitogen-activated protein kinase kinase 1 (Homo sapiens) (UniProt Q02750); conditions: Compound concentration 1.0 uM
[10] = molecular target: Serine/threonine-protein kinase MRCK alpha (Homo sapiens) (UniProt Q5VT25); conditions: Compound concentration 1.0 uM
[11] = molecular target: T1, Serine/threonine-protein kinase 4 (Homo sapiens) (UniProt Q13043); conditions: Compound concentration 1.0 uM
T1 sequence (whole entry): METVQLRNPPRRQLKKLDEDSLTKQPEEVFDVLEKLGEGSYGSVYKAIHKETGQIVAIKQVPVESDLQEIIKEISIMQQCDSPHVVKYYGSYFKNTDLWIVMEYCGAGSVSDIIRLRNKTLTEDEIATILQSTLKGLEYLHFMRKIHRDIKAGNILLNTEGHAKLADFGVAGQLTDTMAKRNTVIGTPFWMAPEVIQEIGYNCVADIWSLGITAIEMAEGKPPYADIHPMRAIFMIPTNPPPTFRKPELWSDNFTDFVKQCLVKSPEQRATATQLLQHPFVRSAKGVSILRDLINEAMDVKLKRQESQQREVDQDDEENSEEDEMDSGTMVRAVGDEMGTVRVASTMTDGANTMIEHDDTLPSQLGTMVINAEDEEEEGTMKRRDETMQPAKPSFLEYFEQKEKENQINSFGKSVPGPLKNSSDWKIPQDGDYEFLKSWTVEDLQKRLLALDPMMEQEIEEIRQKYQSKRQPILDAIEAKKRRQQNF

[12] = molecular target: Serine/threonine-protein kinase 38-like (Homo sapiens) (UniProt Q9Y2H1); conditions: Compound concentration 1.0 uM
[13] = molecular target: T2, Serine/threonine-protein kinase NLK (Homo sapiens) (UniProt Q9UBE8); conditions: Compound concentration 1.0 uM
T2 sequence (whole entry): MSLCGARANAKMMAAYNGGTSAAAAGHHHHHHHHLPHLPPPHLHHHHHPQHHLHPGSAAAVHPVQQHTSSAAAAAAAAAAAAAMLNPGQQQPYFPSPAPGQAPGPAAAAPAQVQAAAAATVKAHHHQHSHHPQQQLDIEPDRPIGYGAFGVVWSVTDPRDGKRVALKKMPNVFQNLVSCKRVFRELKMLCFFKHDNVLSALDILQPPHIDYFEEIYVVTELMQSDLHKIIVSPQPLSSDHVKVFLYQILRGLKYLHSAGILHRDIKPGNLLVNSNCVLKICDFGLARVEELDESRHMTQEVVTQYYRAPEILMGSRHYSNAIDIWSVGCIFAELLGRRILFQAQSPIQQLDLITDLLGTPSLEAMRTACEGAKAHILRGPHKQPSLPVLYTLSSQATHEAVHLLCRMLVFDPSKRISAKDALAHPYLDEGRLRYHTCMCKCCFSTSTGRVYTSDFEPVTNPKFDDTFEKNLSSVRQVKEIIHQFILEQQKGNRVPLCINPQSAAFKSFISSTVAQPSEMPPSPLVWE

[14] = molecular target: Serine/threonine-protein kinase MARK2 (Homo sapiens) (UniProt Q7KZI7); conditions: Compound concentration 1.0 uM
[15] = molecular target: cAMP-dependent protein kinase catalytic subunit alpha (Homo sapiens) (UniProt P17612); conditions: Compound concentration 1.0 uM
[16] = molecular target: RAC-gamma serine/threonine-protein kinase (Homo sapiens) (UniProt Q9Y243); conditions: Compound concentration 1.0 uM
[17] = molecular target: Protein kinase C beta type (Homo sapiens) (UniProt P05771); conditions: Compound concentration 1.0 uM
[18] = molecular target: Protein kinase C theta type (Homo sapiens) (UniProt Q04759); conditions: Compound concentration 1.0 uM
[19] = molecular target: Serine/threonine-protein kinase 32B (Homo sapiens) (UniProt Q9NY57); conditions: Compound concentration 1.0 uM
[20] = molecular target: T3, TGF-beta receptor type-1 (Homo sapiens) (UniProt P36897); conditions: Compound concentration 1.0 uM
T3 sequence (whole entry): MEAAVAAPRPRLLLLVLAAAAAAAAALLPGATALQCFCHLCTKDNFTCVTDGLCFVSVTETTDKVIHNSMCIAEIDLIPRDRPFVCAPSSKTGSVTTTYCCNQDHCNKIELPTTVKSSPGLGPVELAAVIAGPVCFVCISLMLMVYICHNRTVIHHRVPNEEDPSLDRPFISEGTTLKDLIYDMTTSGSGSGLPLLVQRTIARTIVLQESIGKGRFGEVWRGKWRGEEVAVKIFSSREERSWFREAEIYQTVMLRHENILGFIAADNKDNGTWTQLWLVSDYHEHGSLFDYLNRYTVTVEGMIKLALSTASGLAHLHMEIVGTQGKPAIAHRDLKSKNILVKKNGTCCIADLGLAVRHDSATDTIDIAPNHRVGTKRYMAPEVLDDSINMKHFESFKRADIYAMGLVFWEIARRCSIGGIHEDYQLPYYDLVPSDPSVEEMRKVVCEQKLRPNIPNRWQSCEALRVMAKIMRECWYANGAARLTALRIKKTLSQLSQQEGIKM

[21] = molecular target: Testis-specific serine/threonine-protein kinase 4 (Homo sapiens) (UniProt Q6SA08); conditions: Compound concentration 1.0 uM

5-hydroxytryptamine receptor 2C (Homo sapiens), sequence (P28335 whole entry): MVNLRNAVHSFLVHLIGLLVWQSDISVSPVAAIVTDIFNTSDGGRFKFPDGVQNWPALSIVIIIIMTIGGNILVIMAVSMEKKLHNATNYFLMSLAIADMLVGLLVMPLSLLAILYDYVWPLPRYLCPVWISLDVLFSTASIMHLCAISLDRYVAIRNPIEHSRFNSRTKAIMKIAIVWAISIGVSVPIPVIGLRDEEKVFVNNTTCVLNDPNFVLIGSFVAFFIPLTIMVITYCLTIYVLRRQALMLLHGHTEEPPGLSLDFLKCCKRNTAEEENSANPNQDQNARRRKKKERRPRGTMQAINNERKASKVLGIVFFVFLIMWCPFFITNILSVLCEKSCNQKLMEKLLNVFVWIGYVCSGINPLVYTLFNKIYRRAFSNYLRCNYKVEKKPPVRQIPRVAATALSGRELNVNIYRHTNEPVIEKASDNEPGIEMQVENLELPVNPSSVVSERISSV
Protein kinase C theta type (Homo sapiens), sequence (Q04759 whole entry, looked up): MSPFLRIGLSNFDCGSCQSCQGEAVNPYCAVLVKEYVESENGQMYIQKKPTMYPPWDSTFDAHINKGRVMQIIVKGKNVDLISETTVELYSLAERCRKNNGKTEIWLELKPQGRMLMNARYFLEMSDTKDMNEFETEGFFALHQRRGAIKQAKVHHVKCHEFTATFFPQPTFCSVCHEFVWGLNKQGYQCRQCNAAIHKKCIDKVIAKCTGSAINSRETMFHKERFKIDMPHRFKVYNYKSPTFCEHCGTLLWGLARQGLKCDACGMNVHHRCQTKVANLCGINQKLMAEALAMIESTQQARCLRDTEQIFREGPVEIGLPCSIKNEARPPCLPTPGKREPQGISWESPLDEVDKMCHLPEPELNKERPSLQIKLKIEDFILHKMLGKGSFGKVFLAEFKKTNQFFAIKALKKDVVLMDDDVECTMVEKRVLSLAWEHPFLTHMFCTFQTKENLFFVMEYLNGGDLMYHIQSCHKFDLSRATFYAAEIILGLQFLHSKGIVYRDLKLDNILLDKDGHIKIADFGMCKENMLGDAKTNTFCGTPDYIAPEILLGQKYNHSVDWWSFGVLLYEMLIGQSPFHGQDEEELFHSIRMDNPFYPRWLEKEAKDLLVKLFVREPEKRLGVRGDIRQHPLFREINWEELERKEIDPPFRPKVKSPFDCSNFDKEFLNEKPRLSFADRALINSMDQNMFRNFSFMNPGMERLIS
Tyrosine-protein kinase JAK1 (Homo sapiens), sequence (P23458 whole entry): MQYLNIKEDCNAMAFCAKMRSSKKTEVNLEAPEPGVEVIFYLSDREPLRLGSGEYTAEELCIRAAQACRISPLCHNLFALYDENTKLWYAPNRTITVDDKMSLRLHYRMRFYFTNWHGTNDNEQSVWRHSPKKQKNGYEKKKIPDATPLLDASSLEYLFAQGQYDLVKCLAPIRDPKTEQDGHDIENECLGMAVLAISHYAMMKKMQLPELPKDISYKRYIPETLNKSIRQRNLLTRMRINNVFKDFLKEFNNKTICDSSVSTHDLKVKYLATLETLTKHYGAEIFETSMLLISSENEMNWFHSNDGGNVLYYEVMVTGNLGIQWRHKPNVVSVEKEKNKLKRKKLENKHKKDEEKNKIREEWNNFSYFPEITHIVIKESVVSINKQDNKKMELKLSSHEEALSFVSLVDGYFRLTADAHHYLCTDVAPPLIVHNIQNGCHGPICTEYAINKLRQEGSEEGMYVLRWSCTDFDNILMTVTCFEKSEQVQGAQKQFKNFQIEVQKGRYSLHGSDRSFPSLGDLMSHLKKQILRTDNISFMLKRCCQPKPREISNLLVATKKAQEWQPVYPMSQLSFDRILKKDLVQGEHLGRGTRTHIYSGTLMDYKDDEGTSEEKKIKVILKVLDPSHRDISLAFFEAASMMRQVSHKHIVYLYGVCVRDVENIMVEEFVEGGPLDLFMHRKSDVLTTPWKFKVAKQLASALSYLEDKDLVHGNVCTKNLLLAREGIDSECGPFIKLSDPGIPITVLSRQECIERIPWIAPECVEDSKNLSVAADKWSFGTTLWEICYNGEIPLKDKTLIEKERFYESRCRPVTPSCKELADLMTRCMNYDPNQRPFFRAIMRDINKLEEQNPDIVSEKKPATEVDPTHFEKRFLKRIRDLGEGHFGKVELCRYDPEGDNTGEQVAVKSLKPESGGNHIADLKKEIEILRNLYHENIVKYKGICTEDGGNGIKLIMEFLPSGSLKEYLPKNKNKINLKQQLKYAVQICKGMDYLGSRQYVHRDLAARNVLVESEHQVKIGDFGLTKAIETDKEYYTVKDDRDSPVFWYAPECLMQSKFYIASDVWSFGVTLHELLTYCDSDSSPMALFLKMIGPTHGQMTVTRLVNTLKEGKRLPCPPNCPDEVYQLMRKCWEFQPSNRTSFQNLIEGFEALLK
Casein kinase I isoform gamma-1 (Homo sapiens), sequence (Q9HCP0 whole entry, looked up, canonical isoform): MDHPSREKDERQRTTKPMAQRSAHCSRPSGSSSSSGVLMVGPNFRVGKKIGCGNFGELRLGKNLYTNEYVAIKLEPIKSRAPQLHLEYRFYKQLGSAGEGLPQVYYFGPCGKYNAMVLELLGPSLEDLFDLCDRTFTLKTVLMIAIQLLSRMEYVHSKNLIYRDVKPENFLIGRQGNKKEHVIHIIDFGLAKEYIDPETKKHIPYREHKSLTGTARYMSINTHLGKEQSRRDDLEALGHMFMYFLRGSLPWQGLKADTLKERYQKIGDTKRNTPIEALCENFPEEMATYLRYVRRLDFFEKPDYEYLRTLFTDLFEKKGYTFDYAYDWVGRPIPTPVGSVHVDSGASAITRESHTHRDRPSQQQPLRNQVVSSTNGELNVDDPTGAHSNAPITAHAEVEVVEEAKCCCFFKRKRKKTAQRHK
Serine/threonine-protein kinase 32B (Homo sapiens), sequence (Q9NY57 whole entry): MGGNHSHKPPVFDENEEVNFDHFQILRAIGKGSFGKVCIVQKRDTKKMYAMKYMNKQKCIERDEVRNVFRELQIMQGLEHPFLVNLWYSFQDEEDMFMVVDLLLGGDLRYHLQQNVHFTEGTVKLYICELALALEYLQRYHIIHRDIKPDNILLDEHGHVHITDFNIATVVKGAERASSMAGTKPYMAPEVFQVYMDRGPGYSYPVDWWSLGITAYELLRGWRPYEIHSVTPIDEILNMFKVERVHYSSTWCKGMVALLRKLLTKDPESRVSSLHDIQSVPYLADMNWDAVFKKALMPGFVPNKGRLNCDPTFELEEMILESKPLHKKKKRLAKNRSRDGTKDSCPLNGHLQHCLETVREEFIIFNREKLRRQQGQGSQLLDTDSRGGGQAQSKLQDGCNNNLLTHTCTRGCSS
Serine/threonine-protein kinase MRCK alpha (Homo sapiens), sequence (Q5VT25 whole entry): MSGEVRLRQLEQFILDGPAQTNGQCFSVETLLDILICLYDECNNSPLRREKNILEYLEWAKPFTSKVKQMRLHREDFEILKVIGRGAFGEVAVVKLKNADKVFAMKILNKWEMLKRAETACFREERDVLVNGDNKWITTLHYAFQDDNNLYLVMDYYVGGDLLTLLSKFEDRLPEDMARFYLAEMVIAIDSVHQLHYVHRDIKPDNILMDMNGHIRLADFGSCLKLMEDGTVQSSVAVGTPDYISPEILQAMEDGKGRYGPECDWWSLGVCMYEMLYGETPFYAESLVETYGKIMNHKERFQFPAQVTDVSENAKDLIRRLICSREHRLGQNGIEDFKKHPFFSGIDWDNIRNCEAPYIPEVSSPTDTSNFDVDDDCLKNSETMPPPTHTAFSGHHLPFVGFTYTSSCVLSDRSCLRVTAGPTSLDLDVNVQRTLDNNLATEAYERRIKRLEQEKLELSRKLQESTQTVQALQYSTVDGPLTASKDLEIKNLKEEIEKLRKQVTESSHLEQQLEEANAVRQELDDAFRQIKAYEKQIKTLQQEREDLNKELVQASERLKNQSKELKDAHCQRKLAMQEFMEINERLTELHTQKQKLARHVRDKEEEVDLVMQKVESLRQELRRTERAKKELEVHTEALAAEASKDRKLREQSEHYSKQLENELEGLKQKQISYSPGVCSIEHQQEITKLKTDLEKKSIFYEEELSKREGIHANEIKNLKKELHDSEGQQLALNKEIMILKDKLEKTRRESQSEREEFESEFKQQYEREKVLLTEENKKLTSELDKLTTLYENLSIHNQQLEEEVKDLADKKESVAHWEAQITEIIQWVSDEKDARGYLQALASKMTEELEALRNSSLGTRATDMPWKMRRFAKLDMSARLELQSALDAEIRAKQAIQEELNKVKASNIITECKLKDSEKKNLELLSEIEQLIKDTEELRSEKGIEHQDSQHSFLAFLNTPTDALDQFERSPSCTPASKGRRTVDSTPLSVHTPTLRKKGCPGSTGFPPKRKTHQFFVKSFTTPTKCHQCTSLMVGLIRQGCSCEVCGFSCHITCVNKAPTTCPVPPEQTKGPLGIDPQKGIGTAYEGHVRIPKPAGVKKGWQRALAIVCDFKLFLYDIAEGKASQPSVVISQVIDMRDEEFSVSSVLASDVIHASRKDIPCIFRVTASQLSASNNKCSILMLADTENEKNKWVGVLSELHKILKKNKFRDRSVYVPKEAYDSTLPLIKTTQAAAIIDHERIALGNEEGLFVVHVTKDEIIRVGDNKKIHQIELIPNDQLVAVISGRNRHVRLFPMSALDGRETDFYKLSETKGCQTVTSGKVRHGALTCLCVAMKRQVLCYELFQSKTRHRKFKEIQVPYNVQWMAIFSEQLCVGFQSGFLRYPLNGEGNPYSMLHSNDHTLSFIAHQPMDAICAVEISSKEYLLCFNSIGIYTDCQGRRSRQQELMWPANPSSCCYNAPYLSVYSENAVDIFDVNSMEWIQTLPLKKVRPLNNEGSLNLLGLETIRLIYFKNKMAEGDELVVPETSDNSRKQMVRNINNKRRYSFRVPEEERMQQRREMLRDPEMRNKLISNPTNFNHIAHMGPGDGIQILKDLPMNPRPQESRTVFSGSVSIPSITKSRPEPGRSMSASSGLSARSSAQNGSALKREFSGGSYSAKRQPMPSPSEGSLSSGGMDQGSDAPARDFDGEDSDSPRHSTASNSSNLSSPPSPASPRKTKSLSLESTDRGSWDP

CN1CCN(c2cnc3c(C4CCN(C(=O)c5ccc(OC(F)(F)F)cc5N)CC4)ncnc3c2)CC1 [BAY-885]
inactive: inhibition [1] -4.77% | % residual kinase activity [2] 93% | % residual kinase activity [3] 122% | % residual kinase activity [4] 105% | % residual kinase activity [5] 94% | % residual kinase activity [6] 104% | % residual kinase activity [7] 107% | % residual kinase activity [8] 104% | % residual kinase activity [9] 115% | % residual kinase activity [10] 111% | % residual kinase activity [11] 117% | % residual kinase activity [12] 100% | % residual kinase activity [13] 111% | % residual kinase activity [14] 113% | % residual kinase activity [15] 99% | % residual kinase activity [16] 113% | % residual kinase activity [17] 112% | % residual kinase activity [18] 115% | % residual kinase activity [19] 98% | % residual kinase activity [20] 81% | % residual kinase activity [21] 115%
